The values that follow are results of earlier work, collected in US20180028591A1, “MALE AND FEMALE INFERTILITY HERBAL COMPOSITION” (priority 2016, published 2018).

The test system of this data set is rabbit penile tissue. To be noted: by nitric oxide and PDE5 activity.

Structures are written as SMILES.

For `COc1ccc(-c2oc3c(CC=C(C)C)c(O[C@@H]4O[C@H](CO)[C@@H](O)[C@H](O)[C@H]4O)cc(O)c3c(=O)c2O[C@@H]2O[C@@H](C)[C@H](O)[C@@H](O)[C@H]2O)cc1` [icariin], the “relaxation of penile tissue” value is reported as “relax rabbit penile tissue”.
